Data reported in patent US10988451B2, “MCL-1 inhibitors” (Gilead Sciences, Inc., priority 2018, dated 2021).
Like-named read-outs stand apart in the source and are kept apart here.

Tests used:
SKBR3 cells = experiment: SKBR3 Cell Viability Assay; format: cell-based; conditions: CellTiter Glo, read-out: MCL-1 CV SKBR3 EC50
Experimental: SKBR3 Cell Viability Assay Materials
SKBR3 Cells (ATCC HTB-30) were obtained from ATCC (Manassas, Va.) and cultured in McCoy 5A's medium (ATCC 30-2007)+10% fetal bovine serum (SH30071.03, HyClone, Pittsburgh, Pa.) plus 1× Penicillin-Streptomycin L-glutamine (Corning 30-009-C1, Corning, N.Y.)).
The cell viability assay was conducted in a 384-well tissue culture plate (Grenier 781086, Monroe, N.C.) in a total volume of 70 μL. Test compounds were prepared in 1,000×, serially diluted, and pre-spotted into 384-well tissue culture plate by Echo 555 Liquid Handler (Labcyte Inc., San Jose, Calif.). Seventy μ1 of 6,000 SKBR3 cells were dispensed into each well of the plate and incubated at 37° C. with 5% CO2 for 72 hours. At the end of incubation, 2× CellTiter Glo (CTG) reagents (1 part buffer with 2 parts substrate) (Promega, Madison, Wis.) were prepared, and the plate and the reagent were equilibrated to room temperature for 30 minutes. CTG reagent was added to each plate by Biomek FX at 20 μL/well with 5 times pipetting and mixing to induce cell lysis. Luminescence was read by Envision multimode reader (PerkinElmer). […] Percent inhibition was calculated as followed: % Inhibition=100%*(Well−Neg)/(Pos−Neg) Neg, negative control, DMSO Pos, positive control, 10 μM Puromycin

MCL-1/Bim = MCL-1/Bim (Homo sapiens (Human), UniProt Q07820); experiment: MCL-1/Bim Binding AlphaLISA Assay; conditions: 6xHis-Mcl-1 (171-327) and biotinylated Bim peptide (51-76)
Experimental: MCL-1/Bim Binding AlphaLISA Assay.
Inhibition of the MCL-1 and Bim interaction was measured in the following AlphaLISA assay.
Recombinant human MCL-1 protein (C-terminal 6×His Tagged Mcl-1 containing residues 171-327) was generated at Gilead Sciences, Inc. (Foster City, Calif.). A biotinylated peptide derived from human Bim (residues 51-76) was purchased from CPC Scientific (Sunnyvale, Calif.). (CPC 834113). AlphaLISA anti-6His-acceptor beads (AL128R), AlphaScreen Streptavidin donor beads (6760002B), and Proxiplate-384 Plus (6008289) were purchased from PerkinElmer.
The AlphaLISA assay was performed in a 384-well Proxiplate in a total volume of 40 μL. The reaction mixture contained 0.0625 nM 6× His-Mcl-1 (171-327), 0.0625 nM biotinylated-Bim peptide, 10 μg/mL AlphaLISA anti-6×His-AlphaLISA acceptor beads, 40 μg/mL AlphaScreen streptavidin donor beads, and serially diluted test compounds in the binding buffer (20 mM Hepes, pH 7.5 (Teknova H1035); 150 mM NaCl (Promega V4221); 0.002% Brij 35 (Thermo Scientific 20150); 1 mM Dithiothreitol (DTT) Solution (Affymetrix 70726); 0.01% BSA (BioLabs B9000S)). 1,000× test compounds were pre-spotted onto 384-well Proxiplate (Labcyte Echo) by Echo 555 Liquid Handler (Labcyte Inc., San Jose, Calif.) followed by incubation of 5 μl Mcl-1(171-327) for 1 hour. Then 5 μL Bim (51-76) was added and incubated for 2 hours. Five μL AlphaLISA anti-6His-AlphaLISA acceptor beads were then added for 1 hour followed by addition of 5 μL AlphaScreen streptavidin donor beads for 1 hour. The reaction plates were then read on an Envision multimode reader (PerkinElmer) using AlphaScreen settings. […] Percent inhibition was calculated as shown below: % Inhibition=100%*(Well−Neg)/(Pos−Neg) Neg: negative control, DMSO Pos: positive control, no Mcl-1 protein, no biotinylated-Bim peptide

Sequence of MCL-1/Bim (Q07820 171-327): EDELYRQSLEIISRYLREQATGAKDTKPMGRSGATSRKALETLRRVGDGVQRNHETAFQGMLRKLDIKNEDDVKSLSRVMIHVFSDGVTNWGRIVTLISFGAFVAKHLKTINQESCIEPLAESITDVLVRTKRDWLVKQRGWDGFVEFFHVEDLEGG

Row | EC50 (SKBR3 cells; Homo sapiens, SK-BR-3, 72 h) [nM] | IC50 (MCL-1/Bim) [nM] | Compound | EC50 (SKBR3 cells; 72 hours) [nM]
1 | 7730 | 7.4 | CO[C@H]1/C=C/CCCS(=O)(NC(=O)CCN(C)C)=NC(=O)c2ccc3c(c2)N(C[C@@H]2CC[C@H]21)C[C@@]1(CCCc2cc(Cl)ccc21)CO3 (stereo partly drawn) [Example 15] | –
2 | 1080 | 1.1 | CC[C@H]1CN2C[C@@]3(CCCc4cc(Cl)ccc43)COc3ccc(cc32)C(=O)N=[S@](=O)(NC(=O)NC(C)C)CCC/C=C/[C@H](OC)[C@@H]1C [Example 19] | –
3 | 2060 | 0.5 | CC[C@H]1CN2C[C@@]3(CCCc4cc(Cl)ccc43)COc3ccc(cc32)C(=O)N=[S@](=O)(NC(=O)Cc2cnccn2)CCC/C=C/[C@H](OC)[C@@H]1C [Example 20] | –
4 | 2010 | 0.6 | CC[C@H]1CN2C[C@@]3(CCCc4cc(Cl)ccc43)COc3ccc(cc32)C(=O)N=[S@](=O)(NC(C)=O)CCC/C=C/[C@H](OC)[C@@H]1C [Example 25] | –
5 | 1690 | 1.8 | CC[C@H]1CN2C[C@@]3(CCCc4cc(Cl)ccc43)COc3ccc(cc32)C(=O)N=[S@](=O)(NC(=O)CC(C)C)CCC/C=C/[C@H](OC)[C@@H]1C [Example 26] | –
6 | 1610 | 1.4 | CO[C@H]1/C=C/CCC[S@@](=O)(NC(=O)NCc2ccc(F)cc2)=NC(=O)c2ccc3c(c2)N(C[C@@H]2CC[C@H]21)C[C@@]1(CCCc2cc(Cl)ccc21)CO3 [Example 37] | –
7 | 3320 | 1.4 | CO[C@H]1/C=C/C[C@H](C)[C@@H](C)[S@](=O)(NC(=O)CCc2ccnn2C)=NC(=O)c2ccc3c(c2)N(C[C@@H]2CC[C@H]21)C[C@@]1(CCCc2cc(Cl)ccc21)CO3 [Example 50] | –
8 | 705 | 0.1 | CO[C@H]1/C=C/CCC[S@@](=O)(NC(=O)CCc2ccn(C)n2)=NC(=O)c2ccc3c(c2)N(C[C@@H]2CC[C@H]21)C[C@@]1(CCCc2cc(Cl)ccc21)CO3 [Example 51] | –
9 | 64.8 | 0.234 | CO[C@H]1/C=C/C[C@H](C)C[S@@](=O)(NC(=O)c2ccc3c(c2)COCC3)=NC(=O)c2ccc3c(c2)N(C[C@@H]2CC[C@H]21)C[C@@]1(CCCc2cc(Cl)ccc21)CO3 [Example 157] | –
10 | 80.1 | 0.044 | CO[C@H]1/C=C/C[C@H](C)C[S@@](=O)(CC(=O)N[C@@H]2CC[C@@H](O)C2)=NC(=O)c2ccc3c(c2)N(C[C@@H]2CC[C@H]21)C[C@@]1(CCCc2cc(Cl)ccc21)CO3 [Example 222] | –
11 | 19 | 0.038 | COc1nn(C)cc1C(=O)N[S@@]1(=O)=NC(=O)c2ccc3c(c2)N(C[C@@H]2CC[C@H]2[C@@H](O)/C=C/C[C@H](C)[C@H]1C)C[C@@]1(CCCc2cc(Cl)ccc21)CO3 [Example 359] | –
12 | – | 0.106 | COc1nn(C)cc1C(=O)N[S@@]1(=O)=NC(=O)c2ccc3c(c2)N(C[C@@H]2CC[C@H]2[C@@H](OC)/C=C/[C@H](OC(=O)CCc2ccccc2)[C@H](C)C1)C[C@@]1(CCCc2cc(Cl)ccc21)CO3 [Example 377] | 34

Row | Compound | EC50 (SKBR3 cells; Homo sapiens, SK-BR-3, 72 h) [nM] | IC50 (MCL-1/Bim) [nM] | EC50 (SKBR3 cells; 72 hours) [nM]
13 | CO[C@H]1/C=C/CCC[S@@](=O)(NC(=O)CCc2ccnn2C)=NC(=O)c2ccc3c(c2)N(C[C@@H]2CC[C@H]21)C[C@@]1(CCCc2cc(Cl)ccc21)CO3 [Example 22] | – | 0.1 | 259
14 | CO[C@H]1/C=C/C[C@H](C)[C@@H](C)[S@@](=O)(NC(=O)c2cnn(C3COC3)c2)=NC(=O)c2ccc3c(c2)N(C[C@@H]2CC[C@H]21)C[C@@]1(CCCc2cc(Cl)ccc21)CO3 [Example 152] | 55.7 | 0.057 | –
15 | COC1Cc2cc(C(=O)N[S@@]3(=O)=NC(=O)c4ccc5c(c4)N(C[C@@H]4CC[C@H]4[C@@H](OC)/C=C/C[C@H](C)C3)C[C@@]3(CCCc4cc(Cl)ccc43)CO5)cn2C1 (stereo partly drawn) [Example 205] | 58.9 | 0.075 | –
